# Measurements: US10682332B2, “Method for treating melanoma” (Huanggang normal University, priority 2017, dated 2020)
# Tests used:
# [1] = tested on: human melanoma cancer cell A375; assay: Cell cycle arrest by PI staining and flow cytometry; format: cell-based; conditions: 24 hrs, control 1.4%
# Description: To further elucidate the mechanism of growth inhibition of the human melanoma cancer cells by 5-hydroxy-3,6,7,8,3′,4′-hexamethoxyflavone, another study was carried out using only human melanoma cancer cell A375 and 3 study groups. In one liter of the culturing media, 100 μL of 25 and 50 μmol of 5-hydroxy-3,6,7,8,3′,4′-hexamethoxyflavone prepared solutions were added to two study groups. The control group was only treated with 2% DMSO solution.
# The studied cells were incubated for 24 hrs before collected in a centrifuge tube. The cells were then washed with PBS at 4° C. and n mixed with 70% ethanol pre-cooled at −20° C. before kept at 4° C. overnight. Next, the cells were centrifuged at 1000 rpm to remove ethanol and the cell density was adjusted to (1-2)×10^6 cells/mL by add PBS. Following adding PI and DNase-free RNase to respectively reach final concentrations of 50 μg/mL and 50 µg/mL, the cells were stained for cell cycle and apoptosis studies by flow cytometry. All studies were repeated 3 times and the averages were calculated.
# [2] = tested on: human melanoma cancer cell A375; assay: Growth inhibition of human melanoma cancer cell A375; format: cell-based; conditions: 3.125-50 μmol solutions, 48 hrs culturing, absorbance
# Description: (§1) The study was conducted using human melanoma cancer cell line A2058 or A375 as follows: culturing the cell line in DMEM medium; adding 5-hydroxy-3,6,7,8,3′,4′-hexamethoxyflavone with varying concentrations (3.125, 6.25, 12.5, 25, 50 μmol in 100 μl of 2% DMSO solution per liter of the medium); collecting the control and treated cells after 48 hrs of culturing and determining the cell viability by measuring light absorbance of the cells; and calculating the IC50 rate in the human melanoma cancer cells.
# (§2) The cells derived from human melanoma lines A2058 and A375 were cultured in DMEM medium containing 100 U/mL penicillin, 100 μg/ml streptomycin, and 10% fetal bovine serum at a temperature of 37° C. and with carbon dioxide at a concentration of 5%. The cultured cells were divided into 6 study groups and each would be treated with 5-hydroxy-3,6,7,8,3′,4′-hexamethoxyflavone of a different concentration. […] After culturing for 48 hrs, the cells were collected and the absorbance of each treatment group was measured for calculating the IC50 rate in human melanoma cancer cell A2058 by the treatment. […]
# [3] = tested on: human melanoma cancer cell A375-engrafted C57BL/6 mice; assay: Tumor growth in human melanoma cancer cell A375-engrafted C57BL/6 mice; format: in vivo, mouse; conditions: fed 0.4 mL of 0.5 μmol solution once every 2 days, 28 days after inoculation; control 2450 mm^3
# Description: The study was carried out as follows: inoculating C57BL/6 mice with of the human melanoma cancer cells; dividing the mice into 2 groups with 8 mice in each group and treating them once every two days with (i) 0.4 ml of 2% DMSO, (ii) 0.4 ml of 2% DMSO containing 0.5 μmol of 5-hydroxy-3,6,7,8,3′,4′-hexamethoxyflavone; measuring tumor sizes after animal sacrificing 28 days post tumor cell inoculation.
# The experimental C57BL/6 mice were divided into 2 groups, with 8 in each group. Each mouse was fed with 0.4 mL of 0.5 μmol 5-hydroxy-3,6,7,8,3′,4′-hexamethoxyflavone solution as in the treatment group or with 0.4 mL 2% DMSO solution as in the control group at a frequency of once every 2 days. Each mouse was inoculated with human melanoma cancer cell A375 following a standard protocol. 28 days after of the inoculation, the mice were sacrificed. Finally, sizes of tumors in each group of mice were measured and their averages were calculated.
# [4] = tested on: human melanoma cancer cell A2058; assay: Growth inhibition of human melanoma cancer cell A2058; format: cell-based; conditions: 3.125-50 μmol solutions, 48 hrs culturing, absorbance
# Description: as §1, §2
structure (smiles),measurement,setting,value
"COc1ccc(-c2oc3c(OC)c(OC)c(OC)c(O)c3c(=O)c2OC)cc1OC [2-(3,4-dimethoxy-phenyl)-5-hydroxy-3,6,7,8-tetramethoxy-chromen-4-one]",G1 phase cells of the total cells,[1]; 25 μmol drug solution,9.4%
same,G1 phase cells of the total cells,[1]; 50 μmol drug solution,25%
same,growth of human melanoma cancer cell A375,[2],inhibited the growth
same,average tumor size,[3],890 mm^3
same,growth of human melanoma cancer cell A2058,[4],inhibited the growth
